Where “and” joins values, the source holds several entries; their conditions need not be identical. Equal entries are not always repeated.
What was measured:
C57BL/6N mice = assay: Serum ALT and AST activities; format: in vivo; settings: for Serum ALT activity / Serum AST activity: individual mice
Protocol: (§1) Male C57BL/6N mice (8 wk of age) were purchased from Beijing Vital River Laboratory Inc. and acclimated to the environment for 2 wk before they were used for experiments. The environment was maintained at 22°C, in a 12-h light/dark cycle with 50%–60% relative humidity and fed standard chow diets. Because the male mice are more sensitive to metabolic disease than female mice and the estrous cycle of female mice may induce variability to the metabolic phenotypes,[50] only male mice were used in this study. Animals were randomly assigned to control or TPHP treatment groups (five mice per group). Mice were exposed to corn oil (control) purchased from Sigma-Aldrich (C8267) or TPHP (dissolved in corn oil) at 10mg/kg or 50mg/kg body weight (BW) by daily oral gavage for 35 d. The administered volume was 5mL/kg BW. The TPHP corn oil solutions for administration were prepared by dissolving the TPHP in corn oil, and the solutions were stored at −20°C and freshly prepared each week. BW was measured every other day during the dosing period. At the end of experiments, the mice were anesthetized with isoflurane, then blood was collected from the retro-orbital sinus via orbital puncture, and then the mice were euthanized by cervical dislocation. The liver was isolated, weighted, and divided into three fractions: one fraction was fixed with 4% neutral-buffered formalin for Oil Red staining; another fraction was frozen in liquid nitrogen and stored at −80°C for the BA targeted analysis, lipidomic analysis, and qPCR analysis; the remaining fraction was embedded with 3% carboxymethylcellulose (CMC) for MSI analysis. The ileum was also isolated, weighted, and stored at −80°C for the BA targeted analysis and qRT-PCR analysis. Cecal contents were collected from the cecum of mice for the 16S rRNA gene sequencing analysis. Animal study protocols were approved by the Animal Care and Use Committee of Peking University (approval number: Urban-WanY-1).
Blood samples collected from the mice were incubated in a 37°C water bath for 30 min and then incubated under 4°C for 5 h. After centrifuged at 5,000×g and 4°C for 5 min, the serums were aliquoted and stored at −80°C . The determination of serum alanine transaminase (ALT) and aspartate transaminase (AST) activities in the serum were determined using the commercial kits (E2021, E2023; Applygen).

[1] = biological target: T1, human FXR-LBD (6His-FXR-LBD) (Homo sapiens, UniProt Q96RI1); assay: Surface plasmon resonance (SPR) analysis; format: binding
T1 construct: human FXR (residues 243–472) was expressed and purified as an amino-terminal 6His fusion protein; made in house; host or cells: E. coli BL21(DE3)
T1 sequence (Q96RI1 243-472 isoform Q96RI1-2): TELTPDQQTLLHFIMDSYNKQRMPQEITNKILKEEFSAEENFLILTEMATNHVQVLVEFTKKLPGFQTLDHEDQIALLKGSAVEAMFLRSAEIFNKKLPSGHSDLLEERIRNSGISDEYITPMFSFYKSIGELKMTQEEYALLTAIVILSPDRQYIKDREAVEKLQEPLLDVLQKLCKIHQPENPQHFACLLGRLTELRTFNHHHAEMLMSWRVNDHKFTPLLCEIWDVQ
Protocol: . First, 40μg/mL purified 6His-FXR-LBD protein was immobilized on a CM5 sensor chip (29149603; Cytiva) by amine coupling reaction. In detail, the carboxymethyl dextran surface of the CM5 sensor chip was activated by injecting a 1:1 mixture of 0.4M 1-ethyl-3-(3-dimethylaminopropyl)-carbodiimide (EDC) and 0.1M N-hydroxysuccinimide (NHS) for 7 min, then the 6His-FXR-LBD protein was injected and immobilized on the activated surface for 5 min, and subsequently the excess activated groups on the surface were deactivated by 1.0M ethanolamine (pH 8.5). Then, seven different concentrations of compounds (including 3.125μM , 6.25μM , 12.5μM , 25μM , 50μM , 100μM , and 200μM ) were prepared with HBS-EP buffer [ 10 mM HEPES, 150 mM NaCl, 3 mM EDTA, 0.005% (v/v) surfactant P20, pH 7.4], and the final DMSO concentration was adjusted to 2%. The samples were injected into the chip at a flow rate of 30μL/min for 60 s, followed by dissociation for 120 s at 25°C. One of the flow cells on the chip without FXR-LBD protein was used as a negative control. The responses were recorded during the experiment, and the sensorgrams were obtained by subtracting the binding response of the negative control. The equilibrium dissociation constant (KD) was determined by steady-state fitting mode with Biacore T200 Evaluation Software (version 3.2; Cytiva).

[2] = Body weight during exposure; format: in vivo, C57BL/6N mice; settings: for Relative body weight / Body weight: individual mice
Protocol: as §1

[3] = TPHP-H: 50 mg/kg daily oral gavage 35 d
[4] = TPHP-L: 10 mg/kg daily oral gavage 35 d

O=P(Oc1ccccc1)(Oc1ccccc1)Oc1ccccc1 [TPHP, triphenyl phosphate]
Serum ALT vs control group (in words) (C57BL/6N mice; TPHP exposure groups): significantly higher
Serum AST vs control group (in words) (C57BL/6N mice; TPHP exposure groups): higher
Serum ALT activity (C57BL/6N mice; [3]): 14.85 and 21.35 and 16.29
Serum AST activity (C57BL/6N mice; [3]): 72.41 and 61.71 and 102.89
Serum ALT activity (C57BL/6N mice; [4]): 15.83 and 17.21 and 25.56
Serum AST activity (C57BL/6N mice; [4]): 84.28 and 74.46 and 60.21
Response (RU) ([1]; 3.13 μM TPHP): 1.43 RU
Response (RU) ([1]; 6.25 μM TPHP): 1.99 RU
Response (RU) ([1]; 12.5 μM TPHP): 3.33 RU
Response (RU) ([1]; 25 μM TPHP): 6.18 RU
Response (RU) ([1]; 50 μM TPHP): 11.56 RU
Response (RU) ([1]; 100 μM TPHP): 20.62 RU
Response (RU) ([1]; 200 μM TPHP): 25.20 RU
Body weight vs control group (in words) ([2]; TPHP-L and TPHP-H groups, last week of 35 d exposure): significantly high BW
Relative body weight ([2]; day0, TPHP-H group): 100%
Relative body weight ([2]; day0, TPHP-L group): 100%
Relative body weight ([2]; day2, TPHP-H group): 100.00% and 95.33% and 100.77% and 93.99% and 94.87%
Relative body weight ([2]; day2, TPHP-L group): 100.70% and 96.31% and 97.06% and 97.18% and 97.32%
Relative body weight ([2]; day4, TPHP-H group): 97.19% and 93.33% and 101.54% and 92.93% and 92.67%
Relative body weight ([2]; day4, TPHP-L group): 97.89% and 93.62% and 95.96% and 97.58% and 94.25%
Relative body weight ([2]; day6, TPHP-H group): 97.59% and 92.00% and 101.92% and 90.46% and 91.58%
Relative body weight ([2]; day6, TPHP-L group): 98.24% and 94.30% and 94.12% and 97.18% and 94.25%
Relative body weight ([2]; day8, TPHP-H group): 98.39% and 93.00% and 103.85% and 92.23% and 93.41%
Relative body weight ([2]; day8, TPHP-L group): 98.59% and 94.30% and 95.59% and 96.37% and 95.40%
Relative body weight ([2]; day10, TPHP-H group): 98.39% and 92.67% (2×) and 103.85% and 90.46%
Relative body weight ([2]; day10, TPHP-L group): 98.24% and 94.30% and 95.59% and 95.97% and 94.25%
Body weight ([2]; day12, TPHP-H group): 24.8 g and 28.9 g and 27.4 g and 26.1 g (2×)
Relative body weight ([2]; day12, TPHP-H group): 99.60% and 96.33% and 105.38% and 92.23% and 95.60%
Body weight ([2]; day12, TPHP-L group): 28.0 g and 28.2 g and 26.3 g and 24.2 g and 24.9 g
Relative body weight ([2]; day12, TPHP-L group): 98.59% and 94.63% and 96.69% and 97.58% and 95.40%
Body weight ([2]; day14, TPHP-H group): 24.9 g and 29.3 g and 27.7 g and 25.9 g and 26.3 g
Relative body weight ([2]; day14, TPHP-H group): 100.00% and 97.67% and 106.54% and 91.52% and 96.34%
Body weight ([2]; day14, TPHP-L group): 28.7 g and 28.5 g and 26.4 g and 23.8 g and 25.1 g
Relative body weight ([2]; day14, TPHP-L group): 101.06% and 95.64% and 97.06% and 95.97% and 96.17%
Body weight ([2]; day16, TPHP-H group): 25.2 g and 29.6 g and 28.2 g and 26.6 g and 26.7 g
Relative body weight ([2]; day16, TPHP-H group): 101.20% and 98.67% and 108.46% and 93.99% and 97.80%
Body weight ([2]; day16, TPHP-L group): 28.9 g (2×) and 27.2 g and 24.0 g and 25.4 g
Relative body weight ([2]; day16, TPHP-L group): 101.76% and 96.98% and 100.00% and 96.77% and 97.32%
Body weight ([2]; day18, TPHP-H group): 25.6 g and 30.6 g and 28.3 g and 26.9 g and 27.4 g
Relative body weight ([2]; day18, TPHP-H group): 102.81% and 102.00% and 108.85% and 95.05% and 100.37%
Body weight ([2]; day18, TPHP-L group): 29.0 g and 29.3 g and 27.4 g and 24.4 g and 25.6 g
Relative body weight ([2]; day18, TPHP-L group): 102.11% and 98.32% and 100.74% and 98.39% and 98.08%
Body weight ([2]; day20, TPHP-H group): 25.6 g and 30.4 g and 28.2 g and 27.6 g (2×)
Body weight ([2]; day20, TPHP-L group): 29.6 g and 30.1 g and 27.7 g and 25.0 g and 26.0 g
Body weight ([2]; day22, TPHP-H group): 25.7 g and 30.4 g and 27.7 g and 27.6 g and 28.0 g
Body weight ([2]; day22, TPHP-L group): 29.5 g and 29.1 g and 27.8 g and 25.2 g and 26.1 g
Body weight ([2]; day24, TPHP-H group): 26.2 g and 30.9 g and 27.9 g and 28.0 g and 28.4 g
Body weight ([2]; day24, TPHP-L group): 29.9 g and 30.1 g and 28.1 g and 25.1 g and 26.4 g
Body weight ([2]; day26, TPHP-H group): 26.8 g and 31.6 g and 28.0 g and 27.8 g and 28.5 g
Body weight ([2]; day26, TPHP-L group): 30.2 g and 31.0 g and 28.7 g and 25.9 g and 26.7 g
Body weight ([2]; day28, TPHP-H group): 27.0 g and 31.6 g and 27.9 g and 28.1 g and 28.9 g
Body weight ([2]; day28, TPHP-L group): 30.1 g and 31.3 g and 28.7 g and 25.4 g and 26.8 g
Body weight ([2]; day30, TPHP-H group): 27.3 g and 32.3 g and 28.7 g and 28.3 g and 29.8 g
Body weight ([2]; day30, TPHP-L group): 29.9 g and 31.6 g and 29.4 g and 26.2 g and 27.1 g

Reference: paper PMC12010937, “Evaluation of FXR Activity in Pollutants Identified in Sewage Sludge and Subsequent in Vitro and in Vivo Characterization of Metabolic Effects of Triphenyl Phosphate” (Environmental Health Perspectives, 2025)
